Experimental data: ChEMBL document CHEMBL1201862, “PubChem BioAssay data set” (2004)
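Five compound concentrations were applied to cells in 96-well plates for 48 hours; endpoints were derived by simple linear interpolation of the resulting dose-response curve. Here, GI50 denotes the concentration required for 50% inhibition of growth.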 Activity calls are given as the source filed them. Rule as the data show it: active = GI50 up to about 1.1 µM and inactive = higher. *1 amine or outer side, *2 acyl side, *3 side chain or, on linkers, in order; H or OH if unused. Where a SMILES comes first, the peptide text is derived from it. Bridges are numbered along the chain shown (N, C = ends). [ ]: non-standard residue; d: D form. The star is where a group is joined. X56 = CC(C)C(C)C(C(=O)[*:2])N(C)[*:1]; Picolinoyl(3-OH) = O=C(c1ncccc1O)*; NMePhg = CN[CH](C(=O)O)c1ccccc1; Hyp = O=C(O)[CH]1C[CH](O)CN1; Sar = CNCC(=O)O

How the values were obtained:
Experiment in all cases: NCI tumour cell line growth inhibition, 48 h
CAKI-1 = tested on: CAKI-1
COLO 205 = tested on: COLO 205
IGROV-1 = tested on: IGROV-1
MCF7 = tested on: MCF7
MOLT-4 = tested on: MOLT-4
NCI-H23 = tested on: NCI-H23
OVCAR-3 = tested on: OVCAR-3
OVCAR-5 = tested on: OVCAR-5
SK-MEL-28 = tested on: SK-MEL-28
SK-MEL-5 = tested on: SK-MEL-5
SK-OV-3 = tested on: SK-OV-3
SNB-75 = tested on: SNB-75
SW-620 = tested on: SW-620
Malme-3M = tested on: Malme-3M
RXF 393 = tested on: RXF 393
ACHN = tested on: ACHN
M14 = tested on: M14
TK-10 = tested on: TK-10
786-0 = tested on: 786-0
SR = tested on: SR

SMILES | GI50 (CAKI-1) | GI50 (COLO 205) | GI50 (IGROV-1) | GI50 (MCF7) | GI50 (MOLT-4) | GI50 (NCI-H23) | GI50 (OVCAR-3) | GI50 (OVCAR-5) | GI50 (SK-MEL-28) | GI50 (SK-MEL-5) | GI50 (SK-OV-3) | GI50 (SNB-75) | GI50 (SW-620) | GI50 (Malme-3M) | GI50 (RXF 393) | GI50 (ACHN) | GI50 (M14) | GI50 (TK-10) | GI50 (786-0) | GI50 (SR)
COc1ccc2[nH]cc(/C=C(/C)c3ccncc3)c2c1 | 9.73 µM (inactive) | 3.1 µM (inactive) | 13.2 µM (inactive) | 3.47 µM (inactive) | 3.62 µM (inactive) | 2.59 µM (inactive) | 5.7 µM (inactive) | 33.1 µM (inactive) | 4.94 µM (inactive) | 3.1 µM (inactive) | 4.41 µM (inactive) | 2.38 µM (inactive) | 3.83 µM (inactive) | – | – | – | – | – | – | –
COC1/C=C\C=C(/C)C(=O)NC2=CC(=O)C=C(C2=O)C(OC)C(C)CC(OC)C(OC)C(C)/C=C(/C)C1OC(N)=O (centres undefined) | 12.2 µM (inactive) | 0.084 µM (active) | 12.7 µM (inactive) | 1.28 µM (inactive) | 0.214 µM (active) | 1.7 µM (inactive) | 1.49 µM (inactive) | 15.3 µM (inactive) | 2.59 µM (inactive) | 4.35 µM (inactive) | 14.6 µM (inactive) | 17.3 µM (inactive) | 0.146 µM (active) | 0.189 µM (active) | – | – | – | – | – | –
COc1ccc(C2C3CCCC(C3=O)C(c3ccc(OC)cc3)N2N=O)cc1 (centres undefined) | 29.9 µM (inactive) | 20.1 µM (inactive) | 35.5 µM (inactive) | 18.8 µM (inactive) | 25.2 µM (inactive) | 19.5 µM (inactive) | 6.71 µM (inactive) | > 55.6 µM (inactive) | 40.3 µM (inactive) | 17.7 µM (inactive) | 37.4 µM (inactive) | 26.5 µM (inactive) | 42.9 µM (inactive) | 7.85 µM (inactive) | 18.9 µM (inactive) | – | – | – | – | –
O=C1/C(=C/c2ccc(Cl)cc2)N=C(c2ccccc2)N1/N=C/c1ccccc1O | 7.6 µM (inactive) | 16.3 µM (inactive) | 8.26 µM (inactive) | 13.9 µM (inactive) | 12.6 µM (inactive) | > 100 µM (inactive) | 9.1 µM (inactive) | 12.7 µM (inactive) | 15.1 µM (inactive) | 15.1 µM (inactive) | 5.61 µM (inactive) | 6.31 µM (inactive) | > 100 µM (inactive) | 1.98 µM (inactive) | 11.4 µM (inactive) | 5.05 µM (inactive) | 2.84 µM (inactive) | 1.68 µM (inactive) | – | –
COc1ccc(CC2Cc3ccccc3CCN2)cc1OC (centres undefined) | > 50 µM (inactive) | 11.3 µM (inactive) | 23.9 µM (inactive) | > 50 µM (inactive) | 20.3 µM (inactive) | > 50 µM (inactive) | > 50 µM (inactive) | 38.2 µM (inactive) | 19.3 µM (inactive) | – | > 50 µM (inactive) | 31.1 µM (inactive) | > 50 µM (inactive) | 25.5 µM (inactive) | 12 µM (inactive) | – | 16.2 µM (inactive) | – | 26.3 µM (inactive) | –
COC(=O)[C@@H](Nc1ccccc1)[C@@]1(C(=O)OC)SC12c1ccccc1-c1ccccc12 | > 100 µM (inactive) | > 100 µM (inactive) | > 100 µM (inactive) | 34.2 µM (inactive) | 24.4 µM (inactive) | > 100 µM (inactive) | 43.2 µM (inactive) | > 100 µM (inactive) | > 100 µM (inactive) | 41.4 µM (inactive) | – | – | 38.3 µM (inactive) | 49.7 µM (inactive) | 71.3 µM (inactive) | > 100 µM (inactive) | > 100 µM (inactive) | > 100 µM (inactive) | 29.4 µM (inactive) | –
NC(Cc1cccc([N+](=O)[O-])c1)C(=O)O (centres undefined) | > 100 µM (inactive) | > 100 µM (inactive) | > 100 µM (inactive) | > 100 µM (inactive) | > 100 µM (inactive) | > 100 µM (inactive) | > 100 µM (inactive) | > 100 µM (inactive) | > 100 µM (inactive) | > 100 µM (inactive) | > 100 µM (inactive) | – | > 100 µM (inactive) | > 100 µM (inactive) | > 100 µM (inactive) | > 100 µM (inactive) | > 100 µM (inactive) | > 100 µM (inactive) | > 100 µM (inactive) | –
CSCC[C@@H]1C(=O)N(C)[C@H](C(C)(C)C)N1C(=O)c1ccccc1 | – | > 100 µM (inactive) | > 100 µM (inactive) | > 100 µM (inactive) | > 100 µM (inactive) | > 100 µM (inactive) | > 100 µM (inactive) | > 100 µM (inactive) | > 100 µM (inactive) | > 100 µM (inactive) | > 100 µM (inactive) | > 100 µM (inactive) | > 100 µM (inactive) | > 100 µM (inactive) | > 100 µM (inactive) | – | – | – | – | –
CCN(CC)Cc1sc2nc3ccccc3n2c1-c1ccc(OC)cc1 | 38.8 µM (inactive) | 21.5 µM (inactive) | 25.5 µM (inactive) | 23 µM (inactive) | 19.6 µM (inactive) | 26.9 µM (inactive) | 21.3 µM (inactive) | 76 µM (inactive) | 22.7 µM (inactive) | – | 27 µM (inactive) | 33.8 µM (inactive) | 29 µM (inactive) | 17.2 µM (inactive) | 26.2 µM (inactive) | 45.1 µM (inactive) | 25.6 µM (inactive) | 79.6 µM (inactive) | 35.2 µM (inactive) | –
CCCCCCCC/C=C/CCCCCCCC(=O)N(O)C1CC(n2cc(C)c(=O)[nH]c2=O)OC1CO (centres undefined) | 8.99 µM (inactive) | 4.8 µM (inactive) | 5.38 µM (inactive) | – | 4.41 µM (inactive) | 10.6 µM (inactive) | 7.33 µM (inactive) | 10.4 µM (inactive) | 4.51 µM (inactive) | 7.18 µM (inactive) | 10.3 µM (inactive) | 12.1 µM (inactive) | 11 µM (inactive) | 9.71 µM (inactive) | 3.77 µM (inactive) | 6.03 µM (inactive) | 3.55 µM (inactive) | 10.8 µM (inactive) | 4.46 µM (inactive) | 3.27 µM (inactive)
CCCSCC(P(=O)(O)O)P(=O)(O)O.NC1CCCCC1 | > 100 µM (inactive) | > 100 µM (inactive) | > 100 µM (inactive) | > 100 µM (inactive) | > 100 µM (inactive) | > 100 µM (inactive) | 55.7 µM (inactive) | > 100 µM (inactive) | > 100 µM (inactive) | > 100 µM (inactive) | > 100 µM (inactive) | > 100 µM (inactive) | > 100 µM (inactive) | > 100 µM (inactive) | > 100 µM (inactive) | – | – | – | – | –
COc1cccc2c1C(=O)c1c(O)c3c(c(O)c1C2=O)C[C@@](O)(C(C)=O)CC3S(=O)(=O)O (some centres undefined) | > 100 µM (inactive) | > 100 µM (inactive) | > 100 µM (inactive) | – | > 100 µM (inactive) | > 100 µM (inactive) | > 100 µM (inactive) | > 100 µM (inactive) | > 100 µM (inactive) | > 100 µM (inactive) | > 100 µM (inactive) | > 50.5 µM (inactive) | > 100 µM (inactive) | > 100 µM (inactive) | > 100 µM (inactive) | > 100 µM (inactive) | > 100 µM (inactive) | > 100 µM (inactive) | > 100 µM (inactive) | > 84.1 µM (inactive)
O=c1[nH]nc(Cc2ccccc2)n1/N=C/c1ccc([N+](=O)[O-])cc1 | > 100 µM (inactive) | > 100 µM (inactive) | > 100 µM (inactive) | > 100 µM (inactive) | > 100 µM (inactive) | > 100 µM (inactive) | > 100 µM (inactive) | > 100 µM (inactive) | > 100 µM (inactive) | > 100 µM (inactive) | – | 42 µM (inactive) | > 100 µM (inactive) | > 100 µM (inactive) | > 100 µM (inactive) | > 100 µM (inactive) | – | > 100 µM (inactive) | > 100 µM (inactive) | –
CC(=O)C1C(=O)C(=O)N(c2ccc(Cl)c(Cl)c2)C1=O (centres undefined) | > 100 µM (inactive) | > 100 µM (inactive) | > 100 µM (inactive) | > 100 µM (inactive) | > 100 µM (inactive) | > 100 µM (inactive) | > 100 µM (inactive) | > 100 µM (inactive) | > 100 µM (inactive) | > 100 µM (inactive) | > 100 µM (inactive) | > 100 µM (inactive) | > 100 µM (inactive) | – | – | > 100 µM (inactive) | > 100 µM (inactive) | > 100 µM (inactive) | > 100 µM (inactive) | –
CC(C)CC1NC(=O)C(NC(=O)c2ncccc2O)C(C)OC(=O)C(c2ccccc2)N(C)C(=O)C(C)NC(=O)C(C(C)C(C)C)N(C)C(=O)CN(C)C(=O)C2CC(O)CN2C1=O (centres undefined) ({Picolinoyl(3-OH)}-TL[Hyp][Sar][X56]A[NMePhg]; ester 1-C; configuration not given here) | 89.1 µM (inactive) | 80.2 µM (inactive) | 23.8 µM (inactive) | 13.7 µM (inactive) | 43.2 µM (inactive) | 58.6 µM (inactive) | 104 µM (inactive) | > 125 µM (inactive) | 102 µM (inactive) | 24.3 µM (inactive) | > 125 µM (inactive) | 36.7 µM (inactive) | 32.7 µM (inactive) | 55.5 µM (inactive) | > 125 µM (inactive) | – | – | – | – | –
CC(=O)O[C@]1(C(C)=O)CC[C@H]2[C@@H]3C[C@H](C)C4=CC(=O)C=C[C@]4(C)[C@@]3(F)[C@@H](O)C[C@@]21C [FLUOROMETHOLONE ACETATE] | 96.4 µM (inactive) | > 100 µM (inactive) | 69.5 µM (inactive) | – | 25.2 µM (inactive) | 63.8 µM (inactive) | > 100 µM (inactive) | 0.149 µM (active) | 86.3 µM (inactive) | 28.9 µM (inactive) | < 0.01 µM (active) | > 100 µM (inactive) | 53.2 µM (inactive) | 24.9 µM (inactive) | 23.7 µM (inactive) | 56.5 µM (inactive) | 48.3 µM (inactive) | 67 µM (inactive) | > 100 µM (inactive) | 24.7 µM (inactive)
